In PubChem BioAssay AID256 (DTP/NCI, 2004):
Several values for one entry are separate records, joined by “and”; a condition that tells them apart may be missing. Identical values can stand only once. Toxic doses and inconclusive results are not listed.

System: CD2F1 mice, L1210 leukemia ip, survival T/C
Assay: NCI In Vivo Anticancer Drug Screen. Data for tumor model L1210 Leukemia (intraperitoneal) in CD2F1 (CDF1) mice
Conditions: endpoint: mean survival time, higher = longer survival
Summary of the method: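 Implant tumor; dose compound or vehicle; measure endpoint in both groups; report treated divided by control.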

**Q.** Which results are given for `NC(CSC(c1ccccc1)(c1ccccc1)c1ccccc1)C(=O)O` (stereo not given)?
**A.** T/C (dose: 0.48 mg/kg/injection, schedule: Q03HX024 (oral), vehicle: saline): 103 % of control; T/C (dose: 0.94 mg/kg/injection, schedule: Q03HX024 (oral), vehicle: saline): 105 % of control; T/C (dose: 1.88 mg/kg/injection, schedule: Q03HX008 (oral), vehicle: saline): 109 % of control; T/C (dose: 1.88 mg/kg/injection, schedule: Q03HX024 (oral), vehicle: saline): 109 % of control; T/C (dose: 3.9 mg/kg/injection, schedule: Q04DX003 (ip), vehicle: water): 102 % of control; T/C (dose: 5.0 mg/kg/injection, schedule: Q03HX024 (ip), vehicle: water): 122 % of control and 106 % of control; T/C (dose: 5.9 mg/kg/injection, schedule: Q04DX003 (ip), vehicle: water): 102 % of control; T/C (dose: 6.25 mg/kg/injection, schedule: Q01DX009 (sc), vehicle: saline): 101 % of control; T/C (dose: 8.8 mg/kg/injection, schedule: Q04DX003 (ip), vehicle: water): 103 % of control; T/C (dose: 10.0 mg/kg/injection, schedule: Q01DX009 (ip), vehicle: water): 112 % of control; T/C (dose: 10.0 mg/kg/injection, schedule: Q03HX008 (ip), vehicle: water): 120 % of control; T/C (dose: 10.0 mg/kg/injection, schedule: Q03HX016 (ip), vehicle: water): 114 % of control; T/C (dose: 10.0 mg/kg/injection, schedule: Q03HX024 (ip), vehicle: clinical formulation): 103 % of control; T/C (dose: 10.0 mg/kg/injection, schedule: Q03HX024 (ip), vehicle: saline): 112 % of control; T/C (dose: 10.0 mg/kg/injection, schedule: Q03HX024 (ip), vehicle: water): 151 % of control; T/C (dose: 12.5 mg/kg/injection, schedule: Q01DX009 (sc), vehicle: saline): 107 % of control; T/C (dose: 13.2 mg/kg/injection, schedule: Q04DX003 (ip), vehicle: water): 123 % of control; T/C (dose: 15.0 mg/kg/injection, schedule: Q01DX005 (oral), vehicle: saline): 98 % of control; T/C (dose: 15.0 mg/kg/injection, schedule: Q01DX009 (oral), vehicle: saline): 116 % of control; T/C (dose: 15.0 mg/kg/injection, schedule: Q03HX008 (oral), vehicle: saline): 155 % of control; T/C (dose: 15.0 mg/kg/injection, schedule: Q03HX024 (oral), vehicle: saline): 115 % of control; T/C (dose: 20.0 mg/kg/injection, schedule: Q01DX009 (sc), vehicle: water): 123 % of control; T/C (dose: 20.0 mg/kg/injection, schedule: Q03HX008 (ip), vehicle: water): 123 % of control; T/C (dose: 20.0 mg/kg/injection, schedule: Q03HX024 (ip), vehicle: clinical formulation): 108 % of control; T/C (dose: 20.0 mg/kg/injection, schedule: Q03HX024 (ip), vehicle: saline): 116 % of control; T/C (dose: 20.0 mg/kg/injection, schedule: Q04DX003 (ip), vehicle: water): 123 % of control; T/C (dose: 30.0 mg/kg/injection, schedule: Q01DX005 (oral), vehicle: saline): 100 % of control; T/C (dose: 30.0 mg/kg/injection, schedule: Q01DX009 (oral), vehicle: saline): 106 % of control; T/C (dose: 30.0 mg/kg/injection, schedule: Q04DX003 (oral), vehicle: saline): 101 % of control; T/C (dose: 40.0 mg/kg/injection, schedule: Q03HX024 (ip), vehicle: clinical formulation): 121 % of control; T/C (dose: 40.0 mg/kg/injection, schedule: Q03HX024 (ip), vehicle: water): 92 % of control; T/C (dose: 45.0 mg/kg/injection, schedule: Q04DX003 (ip), vehicle: water): 114 % of control; T/C (dose: 50.0 mg/kg/injection, schedule: Q01DX001 (sc), vehicle: saline): 120 % of control; T/C (dose: 60.0 mg/kg/injection, schedule: Q01DX005 (oral), vehicle: saline): 111 % of control; T/C (dose: 60.0 mg/kg/injection, schedule: Q04DX003 (oral), vehicle: saline): 106 % of control; T/C (dose: 80.0 mg/kg/injection, schedule: Q01DX001 (ip), vehicle: water): 104 % of control; T/C (dose: 80.0 mg/kg/injection, schedule: Q01DX009 (oral), vehicle: water): 157 % of control; T/C (dose: 80.0 mg/kg/injection, schedule: Q03HX024 (ip), vehicle: clinical formulation): 150 % of control; T/C (dose: 80.0 mg/kg/injection, schedule: Q03HX024 (ip), vehicle: saline): 154 % of control; T/C (dose: 80.0 mg/kg/injection, schedule: Q04DX003 (ip), vehicle: water): 121 % of control; T/C (dose: 80.0 mg/kg/injection, schedule: Q08DX002 (ip), vehicle: saline): 102 % of control; T/C (dose: 100.0 mg/kg/injection, schedule: Q01DX001 (sc), vehicle: saline): 115 % of control; T/C (dose: 120.0 mg/kg/injection, schedule: Q01DX001 (oral), vehicle: saline): 102 % of control; T/C (dose: 120.0 mg/kg/injection, schedule: Q01DX005 (oral), vehicle: saline): 123 % of control; T/C (dose: 120.0 mg/kg/injection, schedule: Q04DX003 (oral), vehicle: saline): 108 % of control
